PubChem BioAssay (NCI)
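Here, GI50 denotes the concentration required for 50% inhibition of growth. TGI is the concentration that stops growth completely.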

Legend:
Experiment in all cases: DTP human tumour cell line panel, 384-well format
A498 renal = test system: A498 renal
ACHN renal = test system: ACHN renal
CCRF-CEM leukemia = test system: CCRF-CEM leukemia
HCC-2998 colon = test system: HCC-2998 colon
HCT-15 colon = test system: HCT-15 colon
HL-60(TB) leukemia = test system: HL-60(TB) leukemia
HOP-92 NSCLC = test system: HOP-92 NSCLC
HT29 colon = test system: HT29 colon
IGROV1 ovarian = test system: IGROV1 ovarian
LOX IMVI melanoma = test system: LOX IMVI melanoma
M14 melanoma = test system: M14 melanoma
MALME-3M melanoma = test system: MALME-3M melanoma
MCF7 breast = test system: MCF7 breast
MDA-MB-231 breast = test system: MDA-MB-231 breast
MDA-MB-435 melanoma = test system: MDA-MB-435 melanoma
MDA-MB-468 breast = test system: MDA-MB-468 breast
MOLT-4 leukemia = test system: MOLT-4 leukemia
NCI-H226 lung = test system: NCI-H226 lung
NCI-H322M lung = test system: NCI-H322M lung
OVCAR-3 ovarian = test system: OVCAR-3 ovarian
OVCAR-4 ovarian = test system: OVCAR-4 ovarian
OVCAR-5 ovarian = test system: OVCAR-5 ovarian
RPMI-8226 leukemia = test system: RPMI-8226 leukemia
RXF 393 renal = test system: RXF 393 renal
SF-295 CNS = test system: SF-295 CNS
SK-MEL-2 melanoma = test system: SK-MEL-2 melanoma
SK-MEL-28 melanoma = test system: SK-MEL-28 melanoma
SK-MEL-5 melanoma = test system: SK-MEL-5 melanoma
SK-OV-3 ovarian = test system: SK-OV-3 ovarian
SR leukemia = test system: SR leukemia
SW-620 colon = test system: SW-620 colon
TK-10 renal = test system: TK-10 renal
UACC-257 melanoma = test system: UACC-257 melanoma
UACC-62 melanoma = test system: UACC-62 melanoma
UO-31 renal = test system: UO-31 renal

SMILES: O=C(c1cc(-c2cc3c(cc2C(=O)N2Cc4ccccc4C[C@H]2CN2CCOCC2)OCO3)n2c1CCCC2)N(c1ccccc1)c1ccc(O)cc1
- GI50 (A498 renal): 0.806 µM
- TGI (A498 renal): 3.57 µM
- GI50 (ACHN renal): 4.91 µM
- TGI (ACHN renal): > 100 µM
- GI50 (CCRF-CEM leukemia): 0.255 µM
- TGI (CCRF-CEM leukemia): 0.618 µM
- GI50 (HCC-2998 colon): 1.27 µM
- TGI (HCC-2998 colon): 2.83 µM
- GI50 (HCT-15 colon): 1.75 µM
- TGI (HCT-15 colon): 3.22 µM
- GI50 (HL-60(TB) leukemia): 0.146 µM
- TGI (HL-60(TB) leukemia): 0.28 µM
- GI50 (HOP-92 NSCLC): 0.502 µM
- TGI (HOP-92 NSCLC): 2.42 µM
- GI50 (HT29 colon): 0.419 µM
- TGI (HT29 colon): 1.46 µM
- GI50 (IGROV1 ovarian): 2.77 µM
- TGI (IGROV1 ovarian): > 100 µM
- GI50 (LOX IMVI melanoma): 1.42 µM
- TGI (LOX IMVI melanoma): 3.25 µM
- GI50 (M14 melanoma): 0.475 µM
- TGI (M14 melanoma): 1.7 µM
- GI50 (MALME-3M melanoma): 0.473 µM
- TGI (MALME-3M melanoma): 4.71 µM
- GI50 (MCF7 breast): 0.412 µM
- TGI (MCF7 breast): 3 µM
- GI50 (MDA-MB-231 breast): 1.19 µM
- TGI (MDA-MB-231 breast): 3.23 µM
- GI50 (MDA-MB-435 melanoma): 0.144 µM
- TGI (MDA-MB-435 melanoma): 0.351 µM
- GI50 (MDA-MB-468 breast): 0.214 µM
- TGI (MDA-MB-468 breast): 0.456 µM
- GI50 (MOLT-4 leukemia): 0.182 µM
- TGI (MOLT-4 leukemia): 0.327 µM
- GI50 (NCI-H226 lung): 1.01 µM
- TGI (NCI-H226 lung): 3.18 µM
- GI50 (NCI-H322M lung): 2.43 µM
- TGI (NCI-H322M lung): > 100 µM
- GI50 (OVCAR-3 ovarian): 0.21 µM
- TGI (OVCAR-3 ovarian): 0.497 µM
- GI50 (OVCAR-4 ovarian): 1.29 µM
- TGI (OVCAR-4 ovarian): 4.43 µM
- GI50 (OVCAR-5 ovarian): 2.76 µM
- TGI (OVCAR-5 ovarian): 8.21 µM
- GI50 (RPMI-8226 leukemia): 0.207 µM
- TGI (RPMI-8226 leukemia): 0.437 µM
- GI50 (RXF 393 renal): 0.137 µM
- TGI (RXF 393 renal): 0.484 µM
- GI50 (SF-295 CNS): 2.04 µM
- TGI (SF-295 CNS): 4.28 µM
- GI50 (SK-MEL-2 melanoma): 0.176 µM
- TGI (SK-MEL-2 melanoma): 0.704 µM
- GI50 (SK-MEL-28 melanoma): 0.735 µM
- TGI (SK-MEL-28 melanoma): 2.6 µM
- GI50 (SK-MEL-5 melanoma): 0.305 µM
- TGI (SK-MEL-5 melanoma): 0.928 µM
- GI50 (SK-OV-3 ovarian): 0.356 µM
- TGI (SK-OV-3 ovarian): 1.46 µM
- GI50 (SR leukemia): 0.0773 µM
- TGI (SR leukemia): 0.206 µM
- GI50 (SW-620 colon): 0.444 µM
- TGI (SW-620 colon): 1.54 µM
- GI50 (TK-10 renal): 2.83 µM
- TGI (TK-10 renal): > 100 µM
- GI50 (UACC-257 melanoma): 0.362 µM
- TGI (UACC-257 melanoma): 1.25 µM
- GI50 (UACC-62 melanoma): 0.356 µM
- TGI (UACC-62 melanoma): 1.82 µM
- GI50 (UO-31 renal): 4.17 µM
- TGI (UO-31 renal): > 100 µM
